Several values for one entry are separate records, joined by “and”; a condition that tells them apart may be missing. Equal values may be shown once. Entries after “also recorded” stand apart in the source; their conditions may differ.
Key:
3T3-L1 adipocytes = test: [^3H]-2-Deoxy-D-glucose uptake assay in differentiated 3T3-L1 adipocytes; type: cell-based; conditions: test compounds for 2 days; LNO2 1-10 μM
Protocol: [^3H]-2-Deoxy-D-glucose Uptake Assay in Differentiated 3T3-L1 Adipocyte. [^3H]-2-Deoxy-D-glucose uptake assay as previously described (19) 3T3-L1 preadipocytes were grown in 24-well tissue culture plates, 2-day postconfluent preadipocytes were treated by 10 μg/ml insulin (Sigma), 1 μM dexamethasone (Sigma), and 0.5 mM 3-isobutyl-1-methylxanthine (Sigma) in DMEM containing 10% FBS for two days, then cells were kept in 10 μg/ml insulin also in DMEM containing 10% FBS for 6 days (changed medium every three days). Eight days after induction of adipogenesis, test compounds in DMEM containing 10% FBS were added for an additional 2 days (changed medium every day) and PPARγ-specific antagonist GW9662 were pretreated 1 h before other additions. After two rinses with serum-free DMEM, cells were incubated for 3 h in serum-free DMEM and rinsed at room temperature three times with freshly prepared KRPH buffer (5 mM phosphate buffer, 20 mM HEPES, 1 mM MgSO4, 1 mM CaCl2, 136 mM NaCl, 4.7 mM KCl, pH 7.4). The buffer was replaced with 1 μCi/ml of [^3H]-2-deoxy-D-glucose in KRPH buffer for 10 min at room temperature. The treated cells were rinsed carefully three times with cold PBS, lysed overnight in 0.8N NaOH (0.4 ml/well), and neutralized with […] of 12N HCl. Lysate (360 μl) was added to 4 ml Scinti-Safe Plus TM 50% in a scintillation vial, and the vials were mixed and counted.
[^3H]-2-Deoxy-D-glucose uptake assay in differentiated 3T3-L1 adipocytes. [^3H]-2-deoxy-D-glucose uptake was analyzed as previously (23). […] Cells were then rinsed three times with cold PBS, lysed overnight in 0.8 N NaOH (0.4 ml/well), neutralized with 26.6 μl of 12 N HCl and 360 μl of lysate was added into 4 ml Scinti-Safe Plus™ 50% for radioactivity determination by liquid scintillation counting.

[1] = LNO2 and OA-NO2 decay in phosphate buffer; type: physicochemical; conditions: 3 μM, 100 mM phosphate buffer, pH 7.4, 37° C.
Protocol: LNO2 and OA-NO2 decay. […] During the two hour incubation, aliquots were removed and analyzed for LNO2 and OA-NO2 content. […] Non-decayed LNO2 and OA-NO2 were quantitated via HPLC ESI-MS/MS as described above.

[2] = Storage stability in CH3OH under argon at −80° C.; type: physicochemical; conditions: in CH3OH/methanol under argon at −80° C.
Protocol: LNO2 synthesis. Linoleic acid/HgCl2/phenylselenium bromide/NaNO2 (1:1.3:1:1, mol/mol) were combined in THF/acetonitrile (1:1, v/v) with a final concentration of 0.15 M linoleic acid. Care was taken to use anhydrous solvents, dry glassware and reagents that had been dried in vacuo over phosphorus pentoxide. The reaction mixture was stirred (4 h, 25° C.) followed by centrifugation to sediment the precipitate. The supernatant was recovered, the solvent evaporated in vacuo, the product mixture redissolved in THF (original volume) and the temperature reduced to 0° C. A 10-fold molar excess of H2O2 was slowly added with stirring to the mixture then allowed to rest in an ice bath for 20 min followed by a gradual warming to room temp (45 min). The product mixture was extracted with equal parts saturated NaCl and diethyl ether, the organic phase collected, the solvent removed in vacuo and the lipid products were resolvated in CH2Cl2/CH3OH (4:1, v/v). […] Under these conditions, purified nitrated linoleic acid is stable for >3 months. Large scale purification of the individual positional isomers was performed by preparative HPLC using a 250×21.2 mm C18 Phenomenex Luna column (5 μm particle size). […]

3T3-L1 preadipocytes = conditions: for 3T3-L1 preadipocyte differentiation induced: two weeks, oil red O, LNO2 3 μM, OA-NO2 1 μM

Substance | [^3H]-2-deoxy-D-glucose uptake (3T3-L1 adipocytes) | decay after 2 hr [1] | share degraded after 2 hr [1] | time stable on storage [2] | 3T3-L1 preadipocyte differentiation induced (3T3-L1 preadipocytes) | expression of adipocyte markers (PPARγ2 and aP2) (3T3-L1 preadipocytes; immunoblot of cell lysate)
9- and 10-nitro-9-cis-octadecenoic acid [OA-NO2] | induced an increase; also recorded: induced significant increases in glucose uptake | only minimal decay | 25% | > 3 months | ~60% | –
10-nitro-9,12-octadecadienoic acid and 12-nitro-9,12-octadecadienoic acid [LNO2] | dose-dependent increase in glucose uptake; also recorded: greater than that observed for equimolar 15-deoxy-PGJ2, equivalent to Rosiglitazone; also recorded: paralleled | – | ~80% | > 3 months | > 30% and ~30% | resulted in expression of specific adipocyte markers
